Reference: US8785422B2, “A-ring modified 19-nor-vitamin D analogs and their uses” (Wisconsin Alumni Research Foundation, priority 2012, dated 2014)
“Also recorded” adds a separate entry of the source.

How the values were obtained:
[1] = system: 24-hydroxylase (24 Ohase) gene promoter upstream of a luciferase reporter gene in ROS 1.7/2.8 (bone) cells; assay: In vitro transcription assay (luciferase reporter); format: cell-based; conditions: 24-hydroxylase promoter luciferase, sixteen hours after dosing; FIG. 3; read-out: EC50, stimulation of gene transcription in bone cells
Description: In Vitro Transcription Assay.
Transcription activity was measured in ROS 1.7/2.8 (bone) cells that were stably transfected with a 24-hydroxylase (24 Ohase) gene promoter upstream of a luciferase reporter gene. (See Arbour et al., 1998). Cells were given a range of doses. Sixteen hours after dosing the cells were harvested and luciferase activities were measured using a luminometer. RLU=relative luciferase units.

[2] = system: Human promyelocyte leukemia (HL60) cells; assay: HL-60 differentiation (nitro blue tetrazolium reduction); format: cell-based; conditions: four days, FIG. 2
Description: The study drugs were dissolved in ethanol and the concentrations determined using UV spectrophotometry. Serial dilutions were prepared so that a range of drug concentrations could be tested without changing the final concentration of ethanol (≦0.2%) present in the cell cultures.
Human promyelocyte leukemia (HL60) cells were grown in RPMI-1640 medium containing 10% fetal bovine serum. The cells were incubated at 37° C. in the presence of 5% CO2.
HL60 cells were plated at 1.2×10^5 cells/ml. Eighteen hours after plating, cells in duplicate were treated with drug. Four days later, the cells were harvested and a nitro blue tetrazolium reduction assay was performed. (See Collins et al., 1979: J. Exp. Med. 149:969-974), The percentage of differentiated cells was determined by counting a total of 200 cells and recording the number that, contained intracellular black-blue formazan deposits. Verification of differentiation to monocytic cells was determined by measuring phagocytic activity.

[3] = system: bone calcium mobilization; assay: Bone calcium mobilization (serum calcium) in vitamin D-deficient rats; format: in vivo, Sprague-Dawley rats; conditions: low calcium diet (0.02%), ip once daily for 4 consecutive days, DA2HE up to 35100 pmol/day, FIG. 4
Description: (§1) Intestinal Calcium Transport and Bone Calcium Mobilization Male, weanling Sprague-Dawley rats were placed on Diet 11 (see Suda et al., J. Nutr. 100:1049, 1970) (0.47% Ca)+vitamins AEK for one week followed by Diet 11 (0.02% Ca)+vitamins AEK for 3 weeks. The rats were then switched to the same diet containing 0.47% Ca for one week followed by two weeks on the same diet containing 0.02% Ca. Dose administration began during the last week on 0.02% calcium diet. Four consecutive ip doses were given approximately 24 hours apart. Twenty-four hours after the last dose, blood was collected from the severed neck and the concentration of serum calcium determined by atomic absorption spectrometry as a measure of bone calcium mobilization. The first 10 cm of the intestine was also collected for intestinal calcium transport analysis using the everted gut sac method.

[4] = system: intestinal calcium transport; assay: Intestinal calcium transport (everted gut sac) in vitamin D-deficient rats; format: in vivo, Sprague-Dawley rats; conditions: 4 consecutive ip doses, FIG. 5
Description: as §1

[5] = target: T1, full-length recombinant rat vitamin D receptor (Rattus norvegicus, UniProt P13053); assay: Vitamin D receptor binding, competition with [3H]-1,25(OH)2D3; conditions: FIG. 1
T1 construct: Full-length recombinant rat receptor was expressed in E. coli BL21 (DE3) Codon Plus RIL cells; histidine tag (C); made in house; host or cells: E. coli BL21 (DE3) Codon Plus RIL
T1 sequence (P13053 1-423): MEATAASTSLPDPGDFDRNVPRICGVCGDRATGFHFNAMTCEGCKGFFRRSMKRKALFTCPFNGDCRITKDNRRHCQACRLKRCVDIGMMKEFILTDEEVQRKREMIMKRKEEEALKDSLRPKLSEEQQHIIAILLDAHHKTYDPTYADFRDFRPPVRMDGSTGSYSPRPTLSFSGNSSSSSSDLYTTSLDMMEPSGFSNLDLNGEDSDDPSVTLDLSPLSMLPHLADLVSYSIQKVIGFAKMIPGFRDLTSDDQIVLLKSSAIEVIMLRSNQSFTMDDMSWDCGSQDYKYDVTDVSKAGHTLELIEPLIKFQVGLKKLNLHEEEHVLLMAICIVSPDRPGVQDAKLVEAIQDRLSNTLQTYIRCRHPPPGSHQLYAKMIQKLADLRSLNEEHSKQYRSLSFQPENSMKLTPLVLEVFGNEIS
Description: Vitamin D Receptor Binding
Full-length recombinant rat receptor was expressed in E. coli BL21 (DE3) Codon Plus RIL cells and purified to homogeneity using two different column chromatography systems. The first system was a nickel affinity resin that utilizes the C-terminal histidine tag on this protein. The protein that was eluted from this resin was further purified using ion exchange chromatography (S-Sepharose Fast Flow). Aliquots of the purified protein were quick frozen in liquid nitrogen and stored at −80° C. until use. For use in binding assays, the protein was diluted in TEDK50 (50 mM Tris, 1.5 mM EDTA, pH 7.4, 5 mM DTT, 150 mM KCI) with 0.1% Chaps detergent. The receptor protein and ligand concentration was optimized such that no more than 20% of the added radiolabeled ligand was bound to the receptor.
Assay Conditions. Radiolabeled and unlabeled ligands were added to 100 mcl of the diluted protein at a final ethanol concentration of ≦10%, mixed and incubated overnight on ice to reach binding equilibrium. The following day, 100 mcl of hydroxylapatite slurry (50%) was added to each tube and mixed at 10-minute intervals for 30 minutes. The hydroxylapaptite was collected by centrifugation and then washed three times with Tris-EDTA buffer (50 mM Tris, 1.5 mM EDTA, phi 7.4) containing 0.5% Triton X-100. After the final wash, the pellets were transferred to scintillation vials containing 4 ml of Biosafe II scintillation cocktail, mixed and placed in a scintillation counter. Total binding was determined from the tubes containing only radiolabeled ligand.

SMILES	EC50 [1]	EC50 [2]	bone calcium mobilization activity (serum calcium) [3]	EC50 ([2]; Homo sapiens, HL-60, 96 h)	potency in promoting active calcium transport across the gut relative to 1α,25(OH)2D3 [4]	intestinal calcium transport activity ([4]; low calcium diet (0.02%), everted gut sac)	VDR binding activity relative to 1α,25-dihydroxyvitamin D3 ([5]; compared to natural hormone)	Ki ([5]; full-length recombinant rat vitamin D receptor, read-out: Ki, competition with [3H]-1,25(OH)2D3 for binding to VDR)	VDR binding activity relative to standard 1α,25-(OH)2D3, in log ([5]; less activity than standard)
C=C1/C(=C\C=C2/CCC[C@]3(C)[C@@H]([C@H](C)CCCC(C)(C)O)CC[C@@H]23)C[C@@H](O)C[C@@H]1O [1α,25-dihydroxyvitamin D3, reference compound]	0.08 nM	3 nM	increased serum calcium levels						
C[C@H](CCCC(C)(C)O)C1CCC2/C(=C/C=C(CCO)CCO)CCC[C@@]21C (some centres unmarked) [DA2HE, seco-A-2,19-dinor-1,25-dihydroxyvitamin D3]	40 nM		lacks any bone calcium mobilization activity; also recorded: no mobilization of bone calcium	300 nM	about 10 times less potent	relatively high intestinal calcium transport activity which increases in a dose dependent manner	about 10 times less activity	0.4 nM	about one
